Results as given in patent US9788567B2, “Ergothioneine-containing hens egg and method of preparing hens feed for producing same” (Origin Biotechnology Kabushikikaisha, priority 2013, dated 2017).

What was measured:
[1] = in vivo
Description: (§1) Thus, 14 ml of the obtained concentrate solution containing the ergothioneine were mixed in 120 g of the feed for hen used generally, it were mixed with the mixing stirrer 4, and the feed for the laying hen 41 was obtained. The feed for the laying hen 41 of 120 g per a hen was continuously fed to the laying hen for 36 days, dividing into four times a day.
The feeding and raising to the laying hen, and the measurement of the ergothioneine content in the egg yolk of the egg extracted in the meantime are performed in the same way as the example 2. In a fixed amount of the ergothioneine in the measurement of the ergothioneine content in the egg yolk of each egg here, the chromatogram of an internal standard substance and the ergothioneine are obtained from the egg yolk which preliminarily added the internal standard substance of the known amount by a high performance chromatography, the amount of the ergothioneine is measured from the ratio of the peak area of the ergothioneine to that of the internal standard substance.
In FIG. 4, one egg (a total of ten eggs) which each of the ten hens will lay on the 1 day is extracted for every lapsed days which start of the feed of the general feed for the hen, start of the feed of the laying hen, start of the feed of the general feed for the hen to stop of the feed of the laying hen and continue on the 71th day. The ergothioneine content in each egg yolk is measured, and the average value of the ergothioneine content in the egg yolk of these ten eggs is denoted by a graph.

[2] = in vivo; remark: listed apart in the source
Description: as §1
The feeding and raising to the laying hen, and the measure of the ergothioneine content in the egg white of the egg extracted in the meantime are performed in the following ways. Numbering was carried out to ten hens, respectively, and it stored one hen in the raising gauge, and one egg (a total of ten eggs) which each hen will lay on the 1 day was extracted, numbering was carried out to each egg, and the ergothioneine content in the egg white of each egg was measured. In a fixed amount of the ergothioneine, the chromatogram of an internal standard substance and the ergothioneine are obtained from the egg white which preliminarily added the internal standard substance of the known amount by a high performance chromatography, the amount of the ergothioneine is measured from the ratio of the peak area of the ergothioneine to that of the internal standard substance.
In the measurement of the ergothioneine content in the egg white, the feed for the hen used generally (the general feed for the hen) was fed for 5 days (minus fifth day to minus first day), the feed of the laying hen which mixed the concentrate solution containing the ergothioneine continuously was fed for 36 days (0 day to 36th day), the feed of the laying hen was stopped after that, the general feed for the hen was started, and it carried out till 71th day. […] The ergothioneine content in each egg white is measured, and the average value of the ergothioneine content in the egg white of these ten eggs is denoted by a graph.

## C[N+](C)(C)[C@@H](Cc1c[nH]c(=S)[nH]1)C(=O)[O-] [ergothioneine]
[1]
  day on which ergothioneine content in the egg yolk returned to the initial value: 58 days
  increase of ergothioneine content in the egg yolk over initial value: about 8.5 times
  start of concentration of ergothioneine to the egg yolk: second day
[2]
  day on which ergothioneine content in the egg white returned to the initial value: 71 days
  increase of ergothioneine content in the egg white over initial value: about 12.8 times
  start of concentration of ergothioneine to the egg white: first day
